Drawing on ChEMBL document CHEMBL1125547, “Synthesis and excitatory amino acid pharmacology of a series of heterocyclic-fused quinoxalinones and quinazolinones” (J Med Chem, 1992), this text covers Ki for 20 compounds.

Assay [1] has as its target T1, Glutamate receptor ionotropic, AMPA (Rattus norvegicus, UniProt P19490+P19491+P19492+P19493). The assay is described as follows: Compound was tested for its ability to displace [3H]-AMPA from AMPA receptor. It counts as protein-complex assay.
The target in the next assay is Glutamate NMDA receptor. The experiment in a line: Compound was tested for its ability to displace [3H]glycine from glycine site on the N-methyl-D-aspartate glutamate receptor. The class given is protein-complex assay.
Assay [2] concerns the target Glutamate receptor ionotropic, NMDA 1 (Rattus norvegicus, UniProt P35439). The assay is described as follows: Displacement of [3H]glycine from glycine site on the NMDA receptor. For orientation: Displacement assays read how much labelled ligand stays bound in the presence of the test substance.
The target of assay [3] is T1, Glutamate receptor ionotropic, AMPA. The assay is described as follows: Displacement of [3H]AMPA from Ionotropic glutamate receptor AMPA. It counts as protein-complex assay.

As for `O=[N+]([O-])c1cc2nc(O)c3nnnn3c2cc1[N+](=O)[O-]`, the Ki (in assay [1]; at Glutamate NMDA receptor) was above 10 µM each time.

For the compound `Oc1nc2cc(Cl)c(Cl)cc2n2c(C(F)(F)F)nnc12`, the Ki in assay [2] and in assay [3] was above 10 µM throughout.

In the case of `Oc1nc2cc(Cl)c(Cl)cc2n2c(-c3ccccc3)nnc12`, the Ki in assay [2] and in assay [3] was above 10 µM in each case.

For the compound `O=c1[nH]c2cc([N+](=O)[O-])c([N+](=O)[O-])cc2[nH]c1=O` [DNQX], the Ki at Glutamate NMDA receptor was found to be 0.39 µM.

For the compound `CCc1nnc2c(O)nc3cc(Cl)c(Cl)cc3n12`, the Ki in assay [2] is 4.58 µM; in assay [3], 4.78 µM.

On to `Oc1nc2cc(Cl)c(Cl)cc2c2ccnn12`, for which the Ki in assay [2] and in assay [3] was above 10 µM in each case.

Regarding `O=[N+]([O-])c1ccc2c(c1)nc(O)c1nncn12`, the Ki in assay [2] came to 7.35 µM; in assay [3] it was 0.99 µM.

With `Oc1nc2cc(Cl)cc(Cl)c2n2cnnc12`, the Ki was 2.85 µM in assay [2] and 3.24 µM in assay [3].

Take `Oc1nc2cc(Cl)c(Cl)cc2n2ccnc12`: the Ki turned out to be 1.26 µM in assay [2] and 7.38 µM in assay [3].

Consider `O=[N+]([O-])c1cc2nc(O)c3nncn3c2cc1[N+](=O)[O-]`, for which the figures for the Ki (in assay [1]; at Glutamate NMDA receptor) were 5.49 µM and 5.12 µM, respectively.

As for `Oc1nc2cc(Cl)c(Cl)cc2n2cnnc12`, the figures for the Ki in assay [2] and in assay [3] were 0.63 µM and 4.69 µM, respectively.

Turning to `CCCc1nnc2c(O)nc3cc(Cl)c(Cl)cc3n12`, the Ki in assay [2] came out at 3.92 µM. That is a single-digit micromolar value.

With `O=c1[nH]c2ccc([N+](=O)[O-])cc2n2nnnc12`, the Ki in assay [2] and in assay [3] was above 10 µM in each case.

Take `O=c1[nH]c2cc(F)c(F)cc2n2cnnc12`: the inhibition constant (Ki) in assay [2] and in assay [3] was above 10 µM throughout.

Take `Oc1nc2cc(Cl)c(Cl)cc2n2nnnc12`: the Ki in assay [2] and in assay [3] was above 10 µM each time.

Consider `Cc1nnc2c(=O)[nH]c3cc(Cl)c(Cl)cc3n12`, for which the Ki is above 10 µM in assay [2] and 4.45 µM in assay [3].

Turning to `CCCCc1nnc2c(=O)[nH]c3cc(Cl)c(Cl)cc3n12`, the figures for the Ki in assay [2] and in assay [3] were 1.48 µM and 1.71 µM, respectively.

As for `Oc1nc2cc(Cl)c(Cl)cc2nc1O` [2,3-DIHYDROXY-6,7-DICHLOROQUINOXALINE], the figures for the Ki in assay [2] and in assay [3] were 0.21 µM and 1.64 µM, respectively.

Take `O=c1[nH]c2cc(Cl)ccc2c2ccnn12`: the inhibition constant (Ki) in assay [2] and in assay [3] was above 10 µM in each case.

As to `O=[N+]([O-])c1ccc2c(c1)nc(O)c1nnnn12`, the Ki in assay [2] and in assay [3] was above 10 µM throughout.

One may read the Ki as a measure of affinity in units of concentration, obtained from inhibition or displacement. Read a high Ki as weaker binding.
